# Measured values taken from patent publication US20220017433A1 (UNIVERSITÄT ZÜRICH, priority 2018, published 2022).
# Experiment: Water solubility of the chelating compounds
# Format: physicochemical
# Conditions: aqueous stock solution, pH lowered with HCl
substance,measurement,value
Desferrioxamine-p-arylazide [DFO-ArN3],pH below which the compound starts to precipitate slowly,~9
